Assay results: a melting point compilation (Tetko et al.; mined from patent text by program, amines drawn as free bases though some values may be those of a salt)

SMILES | melting point
COc1ccc(OC)c2c1C[C@](O)(C1(C)OCCO1)CC21SCCS1 | 143 to 145 °C
O[C@H](CCc1cccnc1)COc1ccc(Br)cc1 | 65 to 66 °C
C#CCc1c(C)nc2c(NCc3ccccc3C)cccn12 | 126 to 128 °C
OCC(O)COc1ccc(Br)cc1 (stereo unspecified) | 69 to 75 °C
O=C1C(c2ccc(O)cc2)=C(c2ccccc2)c2c(O)cc(O)cc21 | 223 to 225 °C
CC(=O)NCCc1ccc(CCl)cc1 | 86 to 88 °C
CCCCCCCN(CC1(c2ccccc2)CCCC1)C(=O)Nc1c(C(C)C)cccc1C(C)C | 95 to 97 °C
O=c1ncc(C(F)(F)F)cn1COc1ccc(Cl)cc1 | 98 °C
CC(C)(C)c1cc(CN(C=O)n2ccnc2)cc(C(C)(C)C)c1O | 167 °C
CC1(C)CON(Cc2c(F)cccc2Cl)C1=O | 49 to 51 °C
COc1ccc(COc2ccc(C(=O)C3=C(O)C(=O)N(c4ccc(C)nn4)C3c3ccc(OC(F)(F)F)cc3)cc2)cc1 (stereo unspecified) | 206 to 209 °C
CS(=O)(=O)c1cc([N+](=O)[O-])cc(O)c1O | 221 to 224 °C
CN(C)c1nnc(-c2ccc3ncn(-c4ccc(OC(F)(F)F)cc4)c3c2)o1 | 224 to 225 °C
COc1cc(C(=O)C(F)(F)F)ccc1OCCCN1CCC(c2noc3cc(F)ccc23)CC1 | 78 to 80 °C
COCCn1cc(C2CCN(CCOc3ccccc3C(=O)O)CC2)c2ccccc21 | 139 to 140 °C
CCn1c2ccc(C)cc2c(=O)c2c1cnn2C | > 300 °C
CNC(=O)c1cnn(-c2ccccc2)c1C#N | 203 to 205 °C
CCCN(CCC)C(=O)Cc1ccccc1Nc1c(Cl)cccc1Cl | 84 to 86 °C
CCc1cn(C2CC(OC(C)=O)C(CN(C)C(=O)Cc3ccccc3Br)O2)c(=O)[nH]c1=O (stereo unspecified) | 170 °C
CN(C)C=C(SCCN1C(=O)c2ccccc2C1=O)C(=O)c1ccc(F)cc1 | 108 to 111 °C

SMILES | melting point
COCC1OC(n2cnc3c(N)ncnc32)C(O)C1O (stereo unspecified) | 112 to 114 °C
COC(=O)c1cscc1NC(=O)COc1ccc(I)cc1 | 135 to 137 °C
COc1ccc(Cl)c(Oc2c(C=O)nc(N3CCOCC3)nc2NS(=O)(=O)c2ccc(C(C)(C)C)cc2)c1 | 235 to 236 °C
Cc1nc2c3c(c(CO)cc2n1C)CCC(c1ccccc1)O3 (stereo unspecified) | 279 to 281 °C
O=C(O)CCc1conc1-c1ccc(Cl)c(F)c1 | 148 to 149 °C
CC(C)(C)OC(=O)[C@@H]1CC[C@H](NC(=O)CNC(=O)c2ccc(OCc3ccccc3)c(C(C)(C)C)c2)[C@H](C(=O)O)C1 | 126 to 132 °C
COc1ccc(Oc2cn(C)cc(-c3cccc(C(F)(F)F)c3)c2=O)cc1 | 119 to 120 °C
CCCCCS(=O)(=O)NC(=O)/C=C/c1ccc(OCC(C)=O)cc1Oc1ncc(C(F)(F)F)cc1Cl | 187 to 188 °C
CCCc1c(OCc2ccc(C(=O)O)c(Br)c2)ccc(C(C)=O)c1O | 80 to 83 °C
COC(=O)c1sc2cccc(OC)c2c1N(C)C | 69 to 73 °C
CC(=O)OC1CSC(Oc2cccc(-c3cccnc3)n2)C(OC(C)=O)C1OC(C)=O (stereo unspecified) | 141 °C
CC(=O)Nc1ccc(-c2ccccc2C#N)cc1C | 135 to 143 °C
Cc1nc(CS(=O)(=O)c2cccs2)sc1-c1ccnc(Nc2ccc(N3CCOCC3)cc2)n1 | 187 to 189 °C
CCCOC(=O)Nc1nc2ccccc2c2c1nc(CC)n2CCCCNS(C)(=O)=O | 155 to 157 °C
COc1cc(-c2nc3ccccc3n2Cc2ccc(Cl)cc2Cl)cc(OC)c1OC | 186 °C
CC(C)c1ncc2n1-c1ccc(Cl)cc1C(c1ccccc1F)=NC2 | 168 to 169 °C
CCOC(=O)CCCC(=O)c1ccc(OCCCCCBr)c(CCC(=O)OCC)c1 | 48 to 49 °C
Clc1ccc(Nc2nc3ccccc3c3c2ncn3-c2ccco2)cc1Cl | 135 to 138 °C
N#CC(C#N)=C1N(CCCNC2CCCCC2)CCN1CCN1CCCCC1 | 78 to 80 °C
O=c1ccn(-c2ccc(C(F)(F)F)cc2)nc1-c1ccnn1-c1ccccc1 | 237 to 238 °C

SMILES | melting point
O=C(OO)c1cccc(Cl)c1 | 127 to 129 °C
N#CC1CCc2c(C(=O)O)cccc21 (stereo unspecified) | 206 to 208 °C
Cc1occ(S(=O)(=O)NC(C)(C)C)c1C | 95 to 96 °C
COc1cc(C#N)c2c(c1OC)C(=O)CC2 | 150 °C
COC(=O)N[C@H](C(=O)N[C@@H](Cc1ccccc1)[C@@H](O)CN(Cc1ccc(-c2cncs2)cc1)NC(=O)[C@@H](NC(=O)OC)C(C)(C)C)C(C)C | 114 to 115 °C
CCCCNC(=O)NC(=O)c1cc([N+](=O)[O-])cnc1C | 111 to 112 °C
O=C(O)c1nn(Cc2ccccc2)c2c1CCc1cc(OCc3cncnc3)ccc1-2 | 236 to 237 °C
C[Si](C)(C)c1cccc(Br)c1C(=O)O | 139 to 141 °C
Cn1c(-c2cc(O)c3c(c2)C(=O)c2cccc(O)c2C3=O)nc2ccccc21 | 266 to 267 °C
Cc1nn(C)c(Cl)c1C(=O)Nc1ccccc1 | 157 to 159 °C
COc1cc(Nc2c(C#N)cnc3cc4cc(OCCN5CCOCC5)c(OC)cc4cc23)c(Cl)cc1C | 220 to 222 °C
[N-]=[N+]=C1C(=O)CC2CCCCC2C1=O (stereo unspecified) | 81 to 83 °C
COc1cc(O)c([N+](=O)[O-])c2ccccc12 | 128 to 130 °C
O=C1N(c2ccccc2)N=C(Nc2ccccc2)C1(Br)Br | 190 °C
CCOC(=O)c1cccc(-c2coc3cc(O)c(O)cc3c2=O)c1 | 217 to 218 °C
CCCN(CCC)[C@H]1Cc2ccc(OCC)cc2[C@@H]1O | 74 to 75 °C
CN(C)c1c(F)c(F)c(F)c2c1c(=O)c(C(=O)O)cn2C1COC1 | 173 to 175 °C
CC(CC(F)(F)CC(Cl)(CO)CO)C1CCC2C3CC=C4CC(O)CCC4(C)C3CCC12C (stereo unspecified) | 152 to 153 °C

Continued, values first:

melting point | SMILES
85 to 87 °C | CCCCCCCN(CCOCCSc1nc(-c2ccc(OC)cc2)c(-c2ccc(OC)cc2)[nH]1)C(=O)NC(C)C
218 to 221 °C | Nc1cc(O)nc(SCc2cccc(F)c2F)n1
38 to 40 °C | COC(=O)c1cnc(N2CCN(Cc3ccccc3)CC2)nc1C
207 to 208 °C | CCOCc1nc2c(N)nc3c(c2n1CC1(O)CCCC1)NCCC3
69 °C | COc1cccc(C(=O)c2ccc(C(F)(F)F)cc2)c1
130 to 132 °C | CCOC(=O)ON(C(=O)NC)c1cc(Cl)ccc1Cl
227 to 228 °C | CC(C)c1cc(C(=O)Nc2ccc(C(=O)O)s2)oc1C(C)C
142 °C | COc1ccn2cc(-c3ccc(OC)c(OC)c3)nc2c1
90 to 92 °C | O=C1C2CCCCC2C(=O)N1c1ccc(Br)cc1F (stereo unspecified)
133 to 136 °C | CCc1c(-c2ccccc2)oc2c(C(=O)NCCCN3CCN(c4ccccc4OC)CC3)cccc2c1=O
220 to 222 °C | CC1(C)CCC(C)(C)c2cc(C(COc3ccc(C(=O)O)c(O)c3)=NO)ccc21
197 to 199 °C | N#Cc1c(C2CC2)nn(-c2c(Cl)cc(C(F)(F)F)cc2Cl)c1N
220 to 222 °C | NC(=O)[C@@H]1C[C@H](C(=O)O)Nc2cc(Cl)cc(Cl)c21 (relative stereo)
193 to 194 °C | CC(C)(C)C(O)C(Oc1ccc(Cl)cc1)n1ncnc1S (stereo unspecified)
199 °C | COc1ccccc1CNc1ccc2cc(Nc3nnc(C4CC4)o3)ccc2n1
110 to 112 °C | CCOC(=O)c1ccc(Cn2cnc3ccncc32)cc1
81 to 83 °C | Cn1c(C(F)(F)F)c(Cl)c(=O)n(-c2c(F)ccc3nc(Cl)sc23)c1=O
86 to 88 °C | Cc1nc(N2CCc3ccccc3CC2)c(C#N)c(=O)n1N(CC(F)(F)F)C(=O)OC(C)(C)C
108 to 110 °C | Cc1c(C(=O)N[C@@H](Cc2ccc(OCc3ccoc3)cc2)C(=O)O)oc2cc(-c3ccc(Cl)cc3)ccc12
264 to 268 °C | CN(C)C(=O)C1(NS(=O)(=O)c2ccc3c(Cl)cnc(NC(=N)N)c3c2)CCCC1
119 to 121 °C | CC(=O)Nc1ccc(C(=O)NC(C)(C)C)cc1
188 to 191 °C | Cn1c(CCC(=O)O)ccc1C(=O)c1ccc(Cl)cc1

melting point | SMILES
120 to 122 °C | CC1(C(=O)O)COC2(CCCCCCC2)OC1
238 to 240 °C | CC(=O)Oc1ccccc1-c1[nH]c2ccc(Cl)cc2c1-c1ccc(S(C)(=O)=O)cc1
99 to 100 °C | C[C@H](NC(=O)CCSC(=O)c1ccccc1)C(=O)O
125 to 127 °C | CSC(=NC(=O)NC(C)C)NC(=O)NC(C)C
92 to 93 °C | CC=C1CCC2C3C(OC(C)=O)CC4CC(OC(C)=O)CCC4(C)C3CCC12C (stereo unspecified)
64 to 65 °C | CC(C)(C)NS(=O)(=O)c1ccccc1CCCl
126 to 128 °C | N#CC1=C(Nc2ccc(F)c(F)c2)CCC1
177 to 179 °C | Nc1nccnc1C(=O)Nc1ccccc1Cl
156 to 157 °C | CC(=O)OCC1OC(n2ccc3c(C)cccc32)C(OC(C)=O)C(OC(C)=O)C1OC(C)=O (stereo unspecified)
321 to 325 °C | O=C(O)C1(c2ccc(Nc3nc(C4CCCC4)nc4c3CCC4)cc2)CCCC1
124 to 127 °C | COc1ccc(N(C(=O)F)C(=O)Cl)cc1Cl
151 to 152 °C | COc1cc(C)c2c(c1OCC(=O)O)CC(C)(c1ccccc1)C2 (stereo unspecified)
170 to 173 °C | Nc1nccc2oc(I)cc12
232 to 233 °C | CCSCC#Cc1cc(F)c2ncc(C(=O)NCc3ccc(Cl)cc3)c(O)c2c1
179 to 182 °C | COc1cc(CNc2nc(C)nc(C)c2Cl)ccc1O
81 to 82 °C | OCc1cc2c3ccccc3n(Cc3ccccc3)c2s1
234 to 236 °C | O=c1c(-c2ccccc2)c(Cn2cnc3c(Cl)ncnc32)oc2ccc(Br)cc12
225 to 227 °C | CCOC(=O)N1CCN(c2nc(C)nc3c2OCC(=O)N3CC(N)=O)CC1
266 °C | CCOC(=O)C1=C(N)NC2=C(C(=O)CCC2)C1c1cccc(Cl)c1 (stereo unspecified)
103 to 105 °C | COc1cc2c(cc1C)CCN(C)C2C1(c2ccsc2)CC1 (stereo unspecified)
108 to 110 °C | CC(CC(C)(C)C)CP(=O)(O)Cc1cc(C(C)(C)C)c(O)c(C(C)(C)C)c1 (stereo unspecified)
